One test has as its system Drp1. Conditions: cited from earlier work. An excerpt:
However, Mdivi-1 cannot distinguish between Drp1′s physiological and pathological activities. […] Strikingly, while inhibiting the interaction between Drp1 and Fis1 slo ...

Test [1] concerns neuroblastoma SH-SY5Y cells. The experiment in a line: Mitochondrial morphology (Tom20 immunofluorescence), SH-SY5Y. Conditions: 4 µM TAT-P259 or 10 µM Mdivi-1, 30-minute treatment; n = 3, 10 images each. Type of test: cell-based, human. On the procedure:
Represented Western blot is cropped from a full blot shown in the Expanded Western Blots section of the Supplementary Information. […] Hoechst 33342 is shown in blue and Tom20 in green (n = 3, 10 images each). Below, quantification of the form factor (degree of branching) and major axis length (length of mitochondria). At least 6,000 mitochondrial fragments were measured for each condition. Mitochondrial reactive oxygen species (ROS) production (MitoSox Red) (c) and mitochondrial membrane potential (TMRM) (d) after overnight treatment with indicated concentrations of peptide or FCCP. Data are from 3 independent experiments per condition normalized to the average no peptide value. (e) Relative mitochondrial ROS (MitoSox Red) signal in GFP positive cells expressing full-length or alanine-substituted P259 at indicated amino acids after two days of transfection. Values are normalized to a GFP empty vector (n = 3, with 3 replicates). […] Data are mean ± s.e. […]
Cells were fixed onto Permanox plastic slides with 4% paraformaldehyde in PBS for 10 minutes at room temperature. Cells were permeabilized in 0.1% Triton X-100 and 1% normal goat serum (blocking buffer) for one hour at room temperature. Permeabilized cells were incubated overnight with primary anti-Tom20 antibody (Santa Cruze Biotech, sc-11415, 1:250 dilution) in a humidified chamber. Slides were subsequently incubated with FITC-conjugated goat anti-rabbit IgG for two hours at room temperature in a light-shielding humidified chamber. Cells were washed with blocking buffer and stained with Hoechst 33342 (Invitrogen, OR, USA, […]). Coverslips were mounted with a Slowfade antifade solution (Invitrogen, OR, USA). Images were acquired using an LSM 700 confocal laser-s canning microsc ope equipped with a Plan Apochromat 63x/1.4 NA oil-immersion objective (Zeiss).
Mitochondrial morphology analysis
High-throughput image analysis of mitochondrial morphology was performed using MATLAB with the Image Processing toolkit. Background illumination, obtained by morphological opening of the image, was subtracted from the original image. The image was then passed through a top - hat transformation to highlight objects from the background followed by a pixel-wis e adaptive low-pas s Wiener filter to remove noise. A 90th percentile threshold was used to convert the image to a binary image. Erroneously large and small objects were removed from the image and morphological features were extracted from the binary objects. Major axis length is defined as th e length of the longest line that can be drawn through a binary object while the minor axis length is defined as the length of the shortest line. The aspect ratio is defined by the major axis length divided by the minor axis length. […]

A further test concerns SH-SY5Y cells. The experiment in a line: Mitochondrial ROS (MitoSox Red) in GFP positive SH-SY5Y cells expressing P259 or alanine-substituted P259. Type of test: cell-based, human. Conditions: P259 sequence alone (no TAT carrier) expressed from vector, two days, relative to empty GFP vector; n = 3, with 3 replicates. As to the method: Represented Western blot is cropped from a full blot shown in the Expanded Western Blots section of the Supplementary Information. […] Hoechst 33342 is shown in blue and Tom20 in green (n = 3, 10 images each). Below, quantification of the form factor (degree of branching) and major axis length (length of mitochondria). At least 6,000 mitochondrial fragments were measured for each condition. Mitochondrial reactive oxygen species (ROS) production (MitoSox Red) (c) and mitochondrial membrane potential (TMRM) (d) after overnight treatment with indicated concentrations of peptide or FCCP. Data are from 3 independent experiments per condition normalized to the average no peptide value. (e) Relative mitochondrial ROS (MitoSox Red) signal in GFP positive cells expressing full-length or alanine-substituted P259 at indicated amino acids after two days of transfection. Values are normalized to a GFP empty vector (n = 3, with 3 replicates). […] Data are mean ± s.e.
Using mitochondrial ROS as a phenotypic output, we determined which residues of P259 were necessary for its function.
DMI6000B inverted microscope. All mitochondria were imaged with a GFP fi lter. Then, green […]
filter every 30 seconds for 5 minutes. […]
GFP filter (Keyence). […] The GFP and MitoSox signals were measured in a ring around each nucleus. Average MitoSox levels were quantified in […]

The target of test [2] is T1, recombinant human Drp1 (dynamin related protein 1) (human, UniProt O00429 1-736).
T1 construct: dynamin related protein 1 (Drp1), human, recombinant; details may stand in the Supplementary Methods; also called recombinant Drp1
T1 sequence (O00429 whole entry): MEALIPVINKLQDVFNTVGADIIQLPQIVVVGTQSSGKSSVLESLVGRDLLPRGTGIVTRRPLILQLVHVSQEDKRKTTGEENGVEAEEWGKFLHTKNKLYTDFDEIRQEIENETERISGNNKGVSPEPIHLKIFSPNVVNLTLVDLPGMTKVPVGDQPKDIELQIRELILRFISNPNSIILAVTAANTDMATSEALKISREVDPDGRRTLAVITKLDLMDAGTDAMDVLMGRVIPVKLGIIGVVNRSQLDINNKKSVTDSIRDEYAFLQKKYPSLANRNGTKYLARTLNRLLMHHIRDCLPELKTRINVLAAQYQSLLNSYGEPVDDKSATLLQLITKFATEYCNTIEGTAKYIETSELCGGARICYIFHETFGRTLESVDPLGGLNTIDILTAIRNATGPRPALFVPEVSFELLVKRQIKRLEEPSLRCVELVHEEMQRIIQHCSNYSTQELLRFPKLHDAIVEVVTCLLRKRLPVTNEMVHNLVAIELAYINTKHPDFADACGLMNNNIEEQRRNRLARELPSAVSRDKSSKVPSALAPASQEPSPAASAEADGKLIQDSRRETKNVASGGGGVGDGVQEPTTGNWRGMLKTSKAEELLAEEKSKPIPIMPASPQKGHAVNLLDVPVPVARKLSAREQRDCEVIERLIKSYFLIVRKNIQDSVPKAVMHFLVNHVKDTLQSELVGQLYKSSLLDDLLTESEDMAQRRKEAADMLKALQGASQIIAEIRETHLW
Kind of test: graphene surface with transistors measuring electrical conductance. Conditions: both partners purified.

For the molecule `COc1cc(-n2c(=S)[nH]c3ccccc3c2=O)c(Cl)cc1Cl` [Mdivi-1, reference compound], the “GTPase activity of Drp1” value in the test with Drp1 is on record as “inhibitor of the GTPase activity of Drp1”. For the same molecule, in test [1], the mitochondrial morphology result is recorded as “These effects were similar to treatment with Mdivi-1”.
For IIQLPEIVVV [P259 peptide], the “mitochondrial ROS levels (MitoSox) in GFP-positive cells” value in the test with SH-SY5Y cells was “doubled mitochondrial ROS levels”.

B1: P259 (peptide, UniProt O00429 22-31, looked up)
peptide: IIQLPEIVVV
notes: dynamin related protein 1 (Drp1), residues 22-31, with glutamine 27 replaced by glutamate as found in Mff; The text introduces the TAT carrier only for the cell experiments; whether the in vitro peptide carried it may be told in the Supplementary Methods; also called peptide P259
As usually defined, the Kd is the free concentration of one partner at which half of the binding sites on the other are occupied at equilibrium, for simple one-to-one binding. As to B1, the dissociation constant Kd in test [2] was determined as 12 nM.

The values are drawn from paper PMC6145916, “Interaction of mitochondrial fission factor with dynamin related protein 1 governs physiological mitochondrial function in vivo” (Scientific Reports, 2018).
